# From patent US10076572B2, “Photodynamic therapy for treating Clostridium difficile infection using chitosan and tetracycline” (priority 2015, dated 2018)
# “And” between values parts separate entries of the source, which are not always exact repeats. Identical values can stand only once.
# Key:
# C. difficile [1] = experiment: Synergistic photodynamic bactericidal activity (PDT with UVA), colony-forming units; type: cell-based, Clostridium difficile (KCTC 5009); conditions: for Log10 CFU/mL (mean ± SD, n = 3): UVA
# Description: The standard strain of Clostridium difficile was provided by Korean Collection for Type Cultures (C. difficile, KCTC 5009). C. difficile was cultured at 37° C. in a standard anaerobic condition on Clostridia reinforced agar (Oxoid, Cambridge, CB5 8BZ, UK).
# Tetracycline, chitosan (low molecular weight), and ethidium bromide monoazide (EMA) were purchased from Sigma (Sigma Chemical Co., St. Louis, Mo.). A stock solution of tetracycline was prepared in water at a concentration of 10 mg/mL and stored for a maximum of 2 weeks at 4° C. in the dark before use. A stock solution of chitosan (1% w/v) was prepared in 1% acetic acid and used within one month. The light source for UVA was lamp (315-400 nm) for treatment of psoriasis (UV801KL, Waldmann Medical division, Germany). The irradiation procedure was performed in a dark and closed box and C. difficile containing plates were placed at a distance of 10 cm from the light source.
# Based on a modification of the method of Tegos (G. P. Tegos, M. R. Hamblin. Phenothiazinium bactericidal photosensitizers are substrates of bacterial multidrug resistance pumps. Antimicrob. Agents Chemother. 50 (2006)196-203.), C. difficile that had been stored at −70° C. was cultured in Clostridial agar medium for 3 days.
# After successive subcultures for two days, the cells were collected and suspended in PBS at a concentration of 10^8 cells/mL. The cell suspension was exposed to tetracycline alone at concentrations of 0.05 mg/mL, 0.1 mg/mL, 0.5 mg/mL and 1 mg/mL, or to 0.0125% chitosan containing TC at a concentration of 0.05 mg/mL, 0.1 mg/mL, 0.5 mg/mL and 1 mg/mL for 30 min.
# After samples were washed twice with PBS, the bacterial cell suspension was dispensed at a volume of 1000 μL in a plate for irradiation for 5, 10, 20 and 30 min. After irradiation, cells were serially diluted tenfold in PBS to give dilutions of 10^−1 to 10^−8 of the original concentrations, and a 10 μL aliquot of each dilution was spotted on a Clostridial agar plate. After 2 days incubation, the colonies were counted to obtain the number of colony-forming units. C. difficile without treatment with TC, chitosan and light served as the control.
# C. difficile [2] = experiment: EMA-qPCR analysis of C. difficile DNA (16S rRNA gene) to evaluate cell death and DNA damage; type: cell-based, Clostridium difficile (KCTC 5009); conditions: UVA + TC (0.5 mg/mL), UVA irradiation 30 min
# [3] = TC 0.05 mg/mL+UVA, after 30 min irradiation
# [4] = TC 0.1 mg/mL+UVA, after 30 min irradiation
smiles,measurement,setting,value
"CN(C)[C@@H]1C(O)=C(C(N)=O)C(=O)[C@@]2(O)C(O)=C3C(=O)c4c(O)cccc4[C@@](C)(O)[C@H]3C[C@@H]12 [TC, tetracycline]","Log10 CFU/mL (mean ± SD, n = 3)","C. difficile [1]; 0.05 mg/mL TC, irradiation 0 min",8.11 ± 0.48 Log10 CFU/mL
same,"Log10 CFU/mL (mean ± SD, n = 3)","C. difficile [1]; 0.05 mg/mL TC, irradiation 5 min",8.11 ± 0.78 Log10 CFU/mL
same,"Log10 CFU/mL (mean ± SD, n = 3)","C. difficile [1]; 0.05 mg/mL TC, irradiation 10 min",8.13 ± 0.40 Log10 CFU/mL
same,"Log10 CFU/mL (mean ± SD, n = 3)","C. difficile [1]; 0.05 mg/mL TC, irradiation 20 min",8.11 ± 0.67 Log10 CFU/mL
same,"Log10 CFU/mL (mean ± SD, n = 3)","C. difficile [1]; 0.05 mg/mL TC, irradiation 30 min",7.14 ± 0.33 Log10 CFU/mL
same,"Log10 CFU/mL (mean ± SD, n = 3)","C. difficile [1]; 0.1 mg/mL TC, irradiation 0 min",8.03 ± 0.39 Log10 CFU/mL
same,"Log10 CFU/mL (mean ± SD, n = 3)","C. difficile [1]; 0.1 mg/mL TC, irradiation 5 min",8.11 ± 0.11 Log10 CFU/mL
same,"Log10 CFU/mL (mean ± SD, n = 3)","C. difficile [1]; 0.1 mg/mL TC, irradiation 10 min",8.13 ± 0.53 Log10 CFU/mL
same,"Log10 CFU/mL (mean ± SD, n = 3)","C. difficile [1]; 0.1 mg/mL TC, irradiation 20 min",8.11 ± 0.21 Log10 CFU/mL
same,"Log10 CFU/mL (mean ± SD, n = 3)","C. difficile [1]; 0.1 mg/mL TC, irradiation 30 min",7.12 ± 0.38 Log10 CFU/mL
same,"Log10 CFU/mL (mean ± SD, n = 3)","C. difficile [1]; 0.5 mg/mL TC, irradiation 0 min",8.03 ± 0.48 Log10 CFU/mL
same,"Log10 CFU/mL (mean ± SD, n = 3)","C. difficile [1]; 0.5 mg/mL TC, irradiation 5 min",6.02 ± 0.76 Log10 CFU/mL
same,"Log10 CFU/mL (mean ± SD, n = 3)","C. difficile [1]; 0.5 mg/mL TC, irradiation 10 min",5.12 ± 0.10 Log10 CFU/mL
same,"Log10 CFU/mL (mean ± SD, n = 3)","C. difficile [1]; 0.5 mg/mL TC, irradiation 20 min",5.11 ± 0.27 Log10 CFU/mL
same,"Log10 CFU/mL (mean ± SD, n = 3)","C. difficile [1]; 0.5 mg/mL TC, irradiation 30 min",5.11 ± 0.23 Log10 CFU/mL
same,"Log10 CFU/mL (mean ± SD, n = 3)","C. difficile [1]; 1 mg/mL TC, irradiation 0 min",8.03 ± 0.39 Log10 CFU/mL
same,"Log10 CFU/mL (mean ± SD, n = 3)","C. difficile [1]; 1 mg/mL TC, irradiation 5 min",5.21 ± 0.11 Log10 CFU/mL
same,"Log10 CFU/mL (mean ± SD, n = 3)","C. difficile [1]; 1 mg/mL TC, irradiation 10 min",4.11 ± 0.23 Log10 CFU/mL
same,"Log10 CFU/mL (mean ± SD, n = 3)","C. difficile [1]; 1 mg/mL TC, irradiation 20 min",4.11 ± 0.21 Log10 CFU/mL
same,"Log10 CFU/mL (mean ± SD, n = 3)","C. difficile [1]; 1 mg/mL TC, irradiation 30 min",0 Log10 CFU/mL
same,decrease of viable cells,C. difficile [1]; [3],10 times
same,viable cells,C. difficile [1]; [3],1.12×10^7
same,decrease of viable cells,C. difficile [1]; [4],10 times
same,viable cells,C. difficile [1]; [4],1.14×10^7
same,viable cells,"C. difficile [1]; TC 0.5 mg/mL+UVA, after 5 min irradiation",1.10×10^6
same,viable cells,"C. difficile [1]; TC 0.5 mg/mL+UVA, after 10 min irradiation",1.12×10^5
same,viable cells,"C. difficile [1]; TC 0.5 mg/mL+UVA, after 20 min irradiation",1.11×10^5
same,viable cells,"C. difficile [1]; TC 0.5 mg/mL+UVA, after 30 min irradiation",1.13×10^5
same,viable cells,"C. difficile [1]; TC 1.0 mg/mL+UVA, after 5 min irradiation",1.21×10^5
same,viable cells,"C. difficile [1]; TC 1.0 mg/mL+UVA, after 10 min irradiation",1.11×10^4
same,viable cells,"C. difficile [1]; TC 1.0 mg/mL+UVA, after 20 min irradiation",1.13×10^4
same,viable cells,"C. difficile [1]; TC 1.0 mg/mL+UVA, after 30 min irradiation",0
same,"Ct value (EMA-qPCR, 16S rRNA)",C. difficile [2],23.026±0.101 and 23.03 ± 0.101
